# According to patent US20110280848A1, “COMPOSITION COMPRISING CHICORIC ACID AND/OR DERIVATIVES THEREOF” (NESTEC S.A., priority 2009, published 2011):
# Tested on: Nrf2-ARE pathway (AREc32 cells)
# Assay: Antioxidant Responsive Element (ARE) luciferase assay
# Type: cell-based, human
# Settings: for F/C (Nrf2-luciferase reporter activity): 24 h
# Text: The pGL-8×ARE which contains eight copies of the ARE present in rat glutathione-S-transferase A2 (GSTA2) along with the pcDNA3.1 plasmid containing the neomycin selectable marker was stably transfected into human MCF7 cells (Wang et al., Cancer Res. 66, 10983-10994, 2006). ARE (antioxidant-responsive element) is the binding site of the transcription factor Nrf2 which regulates the genes involved in detoxification and endogenous defense against oxidative stress. The plasmid pGL-8×ARE contains a luciferase gene downstream of the eight Nrf2 binding sites that allows monitoring Nrf2 activity. For treatment with chicoric acid and related compounds, the AREc 32 cells were seeded 96-well microtiter plates in DMEM growth medium. After treatment of 24 h with the different preparations, firefly luciferase activity was determined.
smiles,measurement,setting,value
O=C(/C=C/c1ccc(O)c(O)c1)O[C@@H](C(=O)O)[C@@H](OC(=O)/C=C/c1ccc(O)c(O)c1)C(=O)O [chicoric acid],F/C (Nrf2-luciferase reporter activity),100 μg/ml,2580
same,F/C (Nrf2-luciferase reporter activity),200 μg/ml,4364
same,F/C (Nrf2-luciferase reporter activity),400 μg/ml,8810
same,F/C (Nrf2-luciferase reporter activity),600 μg/ml,558
same,F/C (Nrf2-luciferase reporter activity),800 μg/ml,251
same,F/C (Nrf2-luciferase reporter activity),1000 μg/ml,346
same,Response in Nrf2-luciferase reporter activity,saturation inactivation response at higher doses,positive dose-dependent response
